Results taken from ChEMBL document CHEMBL1156588, “Structure-activity relationships of chiral selective norepinephrine reuptake inhibitors (sNRI) with increased oxidative stability” (Bioorg Med Chem Lett, 2008).

experiment: Terminal half life in human; type: ADME, organism-based; settings: in vivo

| half-life [h] | SMILES |
| --- | --- |
| 3 | CNCC[C@@H](Oc1ccccc1C)c1ccccc1 [ATOMOXETINE] |

experiment: in vitro; settings: human, liver microsomes

| SMILES | CLint scaled at 1 h, 1 µM [mL/min/kg] |
| --- | --- |
| CNC[C@@H]1COc2ccccc2[C@@H]1Oc1ccccc1Cl | 9 |
| CCc1ccccc1O[C@H]1c2ccccc2OC[C@H]1CNC | ≤ 3 |
| CNC[C@@H]1OCc2ccccc2[C@@H]1Oc1ccccc1C(F)(F)F | 10 |
| CNCC[C@@H](Oc1ccccc1C)c1ccccc1 [ATOMOXETINE] | 50 |

Next, values leading:

| CLint scaled at 1 h, 1 µM [mL/min/kg] | SMILES |
| --- | --- |
| 21 | CNC[C@@H]1OCc2ccccc2[C@@H]1Oc1cccc(F)c1C |
| 8 | CNC[C@@H]1OCc2ccccc2[C@@H]1Oc1ccccc1Cl |
| ≤ 3 | CNC[C@@H]1OCc2ccccc2[C@@H]1Oc1c(F)cccc1C(F)(F)F |
| ≤ 3 | CNC[C@@H]1OCc2ccccc2[C@@H]1Oc1c(C)cccc1F |
| 4 | CNC[C@@H]1OCc2ccccc2[C@@H]1Oc1ccc(O)cc1C |
